In PubChem BioAssay AID1361 (SRMLSC, 2008):
Activity calls are given as the source filed them. How the calls were made is not given here.

Assay: blockers of mitochondrial fusion, WT vs mutant – cell-based, chemical genetic, wild-type and mutant, confirmation (AID 1361)
Settings: Cell-based mitochondrial fusion phenotype, imaging
[1] = mutant cells, measured here: mutant cell line IC50

Cc1ccc(/C=N/n2cnc3sc(-c4ccccc4)cc3c2=O)o1
IC50 (WT cells): > 25 µM (inactive)
IC50 [1]: > 25 µM

COCC(C)n1c(SCc2ccc(OC)c(F)c2)nc2ccccc2c1=O (stereo not given)
IC50 (WT cells): 15.3 µM
IC50 [1]: > 25 µM

O=C1COc2ccc(NC(=O)N3CCN(c4ccc(F)cc4)CC3)cc2N1
IC50 (WT cells): > 25 µM (inactive)
IC50 [1]: > 25 µM

CCOC(=O)c1sc(/N=C/c2c(C)[nH]n(-c3ccccc3)c2=O)c(C#N)c1C
IC50 (WT cells): > 25 µM (inactive)
IC50 [1]: > 25 µM

CCCC[n+]1c(-c2ccc(Cl)cc2Cl)csc1Nc1ccccc1
IC50 (WT cells): 6.52 µM
IC50 [1]: > 25 µM

Cc1cccc(-c2nnc(SCc3ccccc3)o2)c1
IC50 (WT cells): > 25 µM (inactive)
IC50 [1]: > 25 µM

CCOC(=O)c1c(C)n(C)c2cc(Br)c(C(=O)OC)cc12
IC50 (WT cells): > 25 µM (inactive)
IC50 [1]: > 25 µM

CCCCNC(=S)N(C)/N=C/c1ccc2c(c1)OCO2
IC50 (WT cells): 25 µM (inactive)
IC50 [1]: > 25 µM

FC(F)(F)c1cc(-c2ccco2)nc(NCc2ccc(Cl)cc2)n1
IC50 (WT cells): 14.8 µM
IC50 [1]: > 25 µM

CCCC12CN3CCN(CC(C3)/C1=N\NC(=O)c1ccc(C(C)(C)C)cc1)C2
IC50 (WT cells): 6.28 µM
IC50 [1]: 20.2 µM

CC(C)CNC(=S)N1CCN(C(c2ccccc2)c2ccccc2)CC1
IC50 (WT cells): 14.7 µM
IC50 [1]: > 25 µM

O=C1c2ccccc2C(=O)N1CCN1CCCCC1
IC50 (WT cells): > 25 µM (inactive)
IC50 [1]: > 25 µM

O=C(OC(C(=O)Nc1cccc(C(F)(F)F)c1)c1ccccc1)C1CCCCC1 (stereo not given)
IC50 (WT cells): 9.59 µM
IC50 [1]: > 25 µM

COc1ccc2ccc3c(c2c1)N=C[C@]1(O3)N(C)c2ccccc2C1(C)C
IC50 (WT cells): 8.07 µM
IC50 [1]: > 25 µM

Cc1cc(C)nc(Nc2ncc(O)n2-c2ccccc2)n1
IC50 (WT cells): > 25 µM (inactive)
IC50 [1]: > 25 µM

COc1ccc(NP(=O)(Oc2ccc(Cl)cc2)Oc2ccc(Cl)cc2)cc1OC
IC50 (WT cells): 12.6 µM
IC50 [1]: > 25 µM

c1ccc2c(c1)CCN(c1ncnc3c1[nH]c1ccccc13)C2
IC50 (WT cells): > 25 µM (inactive)
IC50 [1]: > 25 µM

Cc1ccc(C(C(=O)NC2CCCCC2)N(Cc2ccco2)C(=O)Cc2c[nH]c3ccccc23)o1 (stereo not given)
IC50 (WT cells): 21.2 µM
IC50 [1]: > 25 µM

CCCCNC(=O)C1=C(N)C(C(=O)Nc2ccc(C)c(S(=O)(=O)N3CCCCC3)c2)SC1=Nc1ccc(C)cc1C (stereo not given)
IC50 (WT cells): > 25 µM (inactive)
IC50 [1]: > 25 µM

CCCCN(CCCC)C1=Nc2ccccc2N/C1=C(/C#N)C(=O)OCC
IC50 (WT cells): 6.94 µM
IC50 [1]: > 25 µM

COc1cc(CNn2cn[nH]c2=S)cc(Cl)c1OCc1ccc(F)cc1
IC50 (WT cells): 21.2 µM
IC50 [1]: > 25 µM

COc1ccccc1-c1nnc(SCC(=O)NCc2c(C)c(Cl)cc(C(C)C)c2O)o1
IC50 (WT cells): 9.66 µM
IC50 [1]: > 25 µM

COc1ccc(OC)c(S(=O)(=O)Nc2ccc(Oc3ccccc3)cc2)c1
IC50 (WT cells): > 25 µM (inactive)
IC50 [1]: > 25 µM

CCN(Cc1ccccc1)c1ccc(/C=N/NC(=S)NC(C)C)cc1
IC50 (WT cells): 5.04 µM
IC50 [1]: > 25 µM

Cc1ccc(C2=NN(S(=O)(=O)c3ccccc3)C(c3ccccc3O)C2)cc1 (stereo not given)
IC50 (WT cells): 3.89 µM
IC50 [1]: 24.4 µM

N#CC1=C(N)C2=CCCC[C@H]2[C@H](c2ccc(Br)cc2)C1(C#N)C#N
IC50 (WT cells): 4.48 µM
IC50 [1]: 7.07 µM

Cc1cc(NC(=S)N(Cc2ccc(Cl)cc2)Cc2ccc(C(=O)O)cc2)ccc1Cl
IC50 (WT cells): 17.6 µM
IC50 [1]: > 25 µM

CCOCCCNC(=S)N1CCCN(c2nc3c(C)c(C)ccc3cc2C#N)CC1
IC50 (WT cells): 11.8 µM
IC50 [1]: > 25 µM

CCOC(=O)c1cnc(SC)nc1Sc1cc(Cl)ccc1Cl
IC50 (WT cells): 11.2 µM
IC50 [1]: 23.9 µM

CCOC(=O)c1c(NC(=O)C(C)N2CCN(C(=O)c3ccco3)CC2)sc2c1CCCC2 (stereo not given)
IC50 (WT cells): 10.9 µM
IC50 [1]: > 25 µM

C/C=C(/C(=C/C)c1ccc(O)cc1)c1ccc(O)cc1
IC50 (WT cells): 21 µM
IC50 [1]: > 25 µM

CCOC(=O)c1c(NC(=O)OC)sc(C(=O)N(C)C)c1C
IC50 (WT cells): > 25 µM (inactive)
IC50 [1]: > 25 µM

CCOc1ccc(NC(=O)CSc2nnc(-c3ccco3)n2C)cc1
IC50 (WT cells): > 25 µM (inactive)
IC50 [1]: > 25 µM

COC(=O)c1ccc(NCC(=O)c2ccccc2)cc1
IC50 (WT cells): > 25 µM (inactive)
IC50 [1]: > 25 µM

CCN(Cc1cc2ccc(C)cc2[nH]c1=O)C(=O)c1ccncc1
IC50 (WT cells): > 25 µM (inactive)
IC50 [1]: > 25 µM

C/C(N)=C(/C#N)C(=O)COC(=O)c1cc(S(=O)(=O)N2CCCCC2)ccc1C
IC50 (WT cells): > 25 µM (inactive)
IC50 [1]: > 25 µM

O=[N+]([O-])c1ccccc1S(=O)(=O)NCCC1=CCCCC1
IC50 (WT cells): > 25 µM (inactive)
IC50 [1]: > 25 µM

CCCCCc1nc2sc3c(c2c(=O)n1NC(=O)c1ccc([N+](=O)[O-])cc1)CC(C)(C)OC3
IC50 (WT cells): 15.5 µM
IC50 [1]: > 25 µM

CC(C)C(=O)Nc1nnc(SCC(=O)NCc2cccs2)s1
IC50 (WT cells): > 25 µM (inactive)
IC50 [1]: > 25 µM

CC(C)=C1C2CCC1C(C(=O)Nc1sc(C)c(-c3ccc(C(C)C)cc3)c1C(N)=O)C2C(=O)O (stereo not given)
IC50 (WT cells): 20.8 µM
IC50 [1]: > 25 µM

Cc1[nH]c2ccccc2c1/C=C(\C#N)C(=O)NC(C)c1ccccc1 (stereo not given)
IC50 (WT cells): > 25 µM (inactive)
IC50 [1]: > 25 µM

CN1C=CC=C/C1=C1\SC(=S)N(c2ccccc2)C1=O
IC50 (WT cells): > 25 µM (inactive)
IC50 [1]: > 25 µM

N#CC(C#N)=c1ccc2c(c1)N1C3=C(CCCC3)CC3CCCCC31N=2 (stereo not given)
IC50 (WT cells): 3.41 µM
IC50 [1]: 7.81 µM

c1ccc2c(-c3c[nH]c4ccccc34)c3ccccc3nc2c1
IC50 (WT cells): 15.3 µM
IC50 [1]: > 25 µM

Cc1ccc(NC(=S)N(Cc2ccc(Br)cc2)Cc2ccc(C(=O)O)cc2)cc1C
IC50 (WT cells): > 25 µM (inactive)
IC50 [1]: > 25 µM

CCCCC(=O)O[C@H]1CC[C@H]2[C@@H]3CCc4cc(O)ccc4[C@H]3CC[C@]12C
IC50 (WT cells): 12.3 µM
IC50 [1]: > 25 µM

CCN(c1ccccc1)S(=O)(=O)c1cnc[nH]1
IC50 (WT cells): > 25 µM (inactive)
IC50 [1]: > 25 µM

Cc1csc(NC(=O)c2cccn2C)n1
IC50 (WT cells): > 25 µM (inactive)
IC50 [1]: > 25 µM

COc1c(F)c(F)c(C(=O)O)c(Nc2ccccc2C)c1F
IC50 (WT cells): > 25 µM (inactive)
IC50 [1]: > 25 µM

CCOc1ccccc1NC(=O)C(NCC1CCCCC1)c1ccccc1 (stereo not given)
IC50 (WT cells): 14.3 µM
IC50 [1]: > 25 µM

CCOC(=O)c1c(N)sc(C(O)(C(F)(F)F)C(F)(F)F)c1-c1ccccc1
IC50 (WT cells): 20.3 µM
IC50 [1]: > 25 µM

CC(C(=O)Nc1ccc(Cl)cc1Cl)N1CC=C(c2ccccc2)CC1 (stereo not given)
IC50 (WT cells): 8.63 µM
IC50 [1]: 13.3 µM

O=C1/C(=C/c2cccc3ccccc23)CCCc2ccccc21
IC50 (WT cells): 17.3 µM
IC50 [1]: > 25 µM

Cc1ccccc1/C(N)=N/OC(=O)N1c2ccccc2Sc2ccccc21
IC50 (WT cells): 16.6 µM
IC50 [1]: 22 µM

O=C(c1c(F)c(F)c(F)c(F)c1F)N(Cc1ccccc1)Cc1ccccc1
IC50 (WT cells): 15 µM
IC50 [1]: 22.4 µM

O=C(COC(=O)CC(c1ccccc1)c1ccccc1)NCc1ccc(Cl)cc1
IC50 (WT cells): 14.7 µM
IC50 [1]: > 25 µM

C/C1=C\[C@@H](C)C/C=C/[C@H]2[C@@H]3O[C@]3(C)[C@@H](C)[C@H]3[C@H](Cc4c[nH]c5ccccc45)NC(=O)[C@]32C(=O)/C=C/C(=O)[C@@H]1O
IC50 (WT cells): 19 µM
IC50 [1]: > 25 µM

CC(=O)N(C)c1ccc(OCC(O)Cn2c3ccc(Cl)cc3c3cc(Cl)ccc32)cc1 (stereo not given)
IC50 (WT cells): 4.12 µM
IC50 [1]: > 25 µM

COc1ccc(-c2nsc3c(N4CCCCC4C)ncnc23)cc1 (stereo not given)
IC50 (WT cells): 18.9 µM
IC50 [1]: > 25 µM

CCCCCCCOC(=O)c1nc(Cl)c(Cl)c(N)c1Cl
IC50 (WT cells): 18.9 µM
IC50 [1]: > 25 µM
